# Measurements from patent publication US11053204B2, “Pyrimidinyloxy benzene derivatives as herbicides” (FMC Corporation, priority 2015, dated 2021).
# Assays:
# Assay type in all cases: in vivo
# [1] = test system: Italian ryegrass (Lolium multiflorum); test: Test A postemergence, visual injury rating; conditions: 0 to 100 scale, 0 is no effect, 100 is complete control, approximately 10 days
# Method in brief: (§1)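 Scoring: eye-based comparison with untreated controls, 0 for no effect through 100 for complete control, at about day 10. Treatments: directed soil spray preemergence; foliar spray postemergence on 2–10 cm plants at the one- to two-leaf stage. Medium: loam soil with sand.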
# [2] = test system: barnyardgrass (Echinochloa crus-galli); test: Test A postemergence, visual injury rating; conditions: 0 is no effect, 100 is complete control
# Method in brief: as §1
# [3] = test system: blackgrass (Alopecurus myosuroides); test: Test A postemergence, visual injury rating; conditions: 0 is no effect, 100 is complete control
# Method in brief: as §1
# corn (Zea mays) = test: Test A postemergence, visual injury rating; conditions: 0 is no effect, 100 is complete control
# Method in brief: as §1
# [4] = test system: galium (catchweed bedstraw, Galium aparine); test: Test A postemergence, visual injury rating; conditions: 0 is no effect, 100 is complete control
# Method in brief: as §1
# [5] = test system: giant foxtail (Setaria faberii); test: Test A postemergence, visual injury rating; conditions: 0 is no effect, 100 is complete control
# Method in brief: as §1
# kochia (Kochia scoparia) = test: Test A postemergence, visual injury rating; conditions: 0 to 100 scale, 0 is no effect, 100 is complete control, approximately 10 days
# Method in brief: as §1
# [6] = test system: pigweed (Amaranthus retroflexus); test: Test A postemergence, visual injury rating; conditions: 0 to 100 scale, 0 is no effect, 100 is complete control, approximately 10 days
# Method in brief: as §1
# [7] = test system: ragweed (common ragweed, Ambrosia elatior); test: Test A postemergence, visual injury rating; conditions: 0 to 100 scale, 0 is no effect, 100 is complete control, approximately 10 days
# Method in brief: as §1
# [8] = test system: wheat (Triticum aestivum); test: Test A postemergence, visual injury rating; conditions: 0 to 100 scale, 0 is no effect, 100 is complete control, approximately 10 days
# Method in brief: as §1
# [9] = test system: lambsquarters (Chenopodium album); test: Test C preemergence, plant response rating; conditions: Preemergence
# Method in brief: (§2)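 After sowing in loam–sand blend or silt loam, pots were sprayed preemergence; separately grown 1- to 4-leaf plants were sprayed postemergence. Following 13 to 15 d under greenhouse conditions, injury was rated visually on a 0 to 100 scale.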
# [10] = test system: morningglory (Ipomoea coccinea); test: Test C preemergence, plant response rating; conditions: Preemergence
# Method in brief: as §2
# [11] = test system: nutsedge, yellow (yellow nutsedge, Cyperus esculentus); test: Test C preemergence, plant response rating; conditions: Preemergence
# Method in brief: as §2
# [12] = test system: velvetleaf (Abutilon theophrasti); test: Test C preemergence, plant response rating; conditions: Preemergence
# Method in brief: as §2
# [13] = test system: waterhemp (common waterhemp, Amaranthus rudis); test: Test C preemergence, plant response rating; conditions: Preemergence
# Method in brief: as §2
# [14] = test system: wheat (winter wheat, Triticum aestivum); test: Test C preemergence, plant response rating; conditions: Preemergence
# Method in brief: as §2
# [15] = test system: barnyardgrass (Echinochloa crus-galli); test: Test C postemergence, plant response rating; conditions: for Plant response rating, Barnyardgrass: scale 0 to 100; for Barnyardgrass plant response rating: scale 0 to 100 (0 no effect, 100 complete control)
# Method in brief: as §2
# [16] = test system: crabgrass, large (large crabgrass, Digitaria sanguinalis); test: Test C postemergence, plant response rating; conditions: for Crabgrass, Large plant response rating: scale 0 to 100 (0 no effect, 100 complete control)
# Method in brief: as §2
# [17] = test system: ryegrass, Italian (Italian ryegrass, Lolium multiflorum); test: Test C postemergence, plant response rating; conditions: for Ryegrass, Italian plant response rating: scale 0 to 100 (0 no effect, 100 complete control)
# Method in brief: as §2
# [18] = 31 g ai/ha, 0 to 100 scale, approximately 10 days
smiles,measurement,setting,value
O=C(CCCC(F)(F)F)c1c(Br)cccc1Oc1ncc(Cl)cn1 [Compound 77],"Ryegrass, Italian plant response rating",[1]; 31 g ai/ha,20
same,"Ryegrass, Italian plant response rating",[1]; 125 g ai/ha,60
same,Barnyardgrass plant response rating,[2]; [18],30
same,Barnyardgrass plant response rating (0 to 100 scale),[2]; 125 g ai/ha,90
same,Blackgrass plant response rating,[3]; [18],20
same,Blackgrass plant response rating (0 to 100 scale),[3]; 125 g ai/ha,50
same,Corn plant response rating,corn (Zea mays); [18],10
same,Corn plant response rating (0 to 100 scale),corn (Zea mays); 125 g ai/ha,30
same,Galium plant response rating,[4]; [18],90
same,Galium plant response rating (0 to 100 scale),[4]; 125 g ai/ha,100
same,"Foxtail, Giant plant response rating",[5]; [18],30
same,"Foxtail, Giant plant response rating (0 to 100 scale)",[5]; 125 g ai/ha,90
same,Kochia plant response rating,kochia (Kochia scoparia); 31 g ai/ha,100
same,Kochia plant response rating,kochia (Kochia scoparia); 125 g ai/ha,100
same,Pigweed plant response rating,[6]; 31 g ai/ha,100
same,Pigweed plant response rating,[6]; 125 g ai/ha,100
same,Ragweed plant response rating,[7]; 31 g ai/ha,0
same,Ragweed plant response rating,[7]; 125 g ai/ha,0
same,Wheat plant response rating,[8]; 31 g ai/ha,0
same,Wheat plant response rating,[8]; 125 g ai/ha,10
same,"Plant response rating, Lambsquarters","[9]; 125 g ai/ha, scale of 0 to 100",98
same,"Plant response rating, Lambsquarters","[9]; 16 g ai/ha, scale 0 to 100",50
same,"Plant response rating, Lambsquarters","[9]; 31 g ai/ha, scale 0 to 100",60
same,"Plant response rating, Lambsquarters","[9]; 62 g ai/ha, scale 0 to 100",100
same,"Plant response rating, Morningglory","[10]; 125 g ai/ha, scale of 0 to 100",65
same,"Plant response rating, Morningglory","[10]; 16 g ai/ha, scale 0 to 100",10
same,"Plant response rating, Morningglory","[10]; 31 g ai/ha, scale 0 to 100",20
same,"Plant response rating, Morningglory","[10]; 62 g ai/ha, scale 0 to 100",35
same,"Plant response rating, Nutsedge, Yellow","[11]; 125 g ai/ha, scale of 0 to 100",30
same,"Plant response rating, Nutsedge, Yellow","[11]; 16 g ai/ha, scale 0 to 100",0
same,"Plant response rating, Nutsedge, Yellow","[11]; 31 g ai/ha, scale 0 to 100",0
same,"Plant response rating, Nutsedge, Yellow","[11]; 62 g ai/ha, scale 0 to 100",0
same,"Plant response rating, Velvetleaf","[12]; 125 g ai/ha, scale of 0 to 100",100
same,"Plant response rating, Velvetleaf","[12]; 16 g ai/ha, scale 0 to 100",10
same,"Plant response rating, Velvetleaf","[12]; 31 g ai/ha, scale 0 to 100",30
same,"Plant response rating, Velvetleaf","[12]; 62 g ai/ha, scale 0 to 100",70
same,"Plant response rating, Waterhemp","[13]; 125 g ai/ha, scale of 0 to 100",100
same,"Plant response rating, Waterhemp","[13]; 16 g ai/ha, scale 0 to 100",95
same,"Plant response rating, Waterhemp","[13]; 31 g ai/ha, scale 0 to 100",100
same,"Plant response rating, Waterhemp","[13]; 62 g ai/ha, scale 0 to 100",100
same,"Plant response rating, Wheat","[14]; 125 g ai/ha, scale of 0 to 100",0
same,"Plant response rating, Wheat","[14]; 16 g ai/ha, scale 0 to 100",0
same,"Plant response rating, Wheat","[14]; 31 g ai/ha, scale 0 to 100",0
same,"Plant response rating, Wheat","[14]; 62 g ai/ha, scale 0 to 100",0
same,"Plant response rating, Barnyardgrass",[15]; 16 g ai/ha,15
same,"Plant response rating, Barnyardgrass",[15]; 31 g ai/ha,25
same,Barnyardgrass plant response rating,[15]; 62 g ai/ha,25
same,Barnyardgrass plant response rating,[15]; 125 g ai/ha,30
same,"Plant response rating, Crabgrass, Large","[16]; 16 g ai/ha, scale of 0 to 100",10
same,"Plant response rating, Crabgrass, Large","[16]; 31 g ai/ha, scale 0 to 100",25
same,"Crabgrass, Large plant response rating",[16]; 62 g ai/ha,30
same,"Crabgrass, Large plant response rating",[16]; 125 g ai/ha,30
same,"Plant response rating, Ryegrass, Italian","[17]; 16 g ai/ha, scale of 0 to 100",0
same,"Plant response rating, Ryegrass, Italian","[17]; 31 g ai/ha, scale 0 to 100",5
same,"Ryegrass, Italian plant response rating",[17]; 62 g ai/ha,10
same,"Ryegrass, Italian plant response rating",[17]; 125 g ai/ha,10
